Results as given in paper PMC8048981, “Cys–Cys and Cys–Lys Stapling of Unprotected Peptides Enabled by Hypervalent Iodine Reagents” (Angewandte Chemie (International Ed. in English), 2021).
Like-named read-outs stand apart in the source and are kept apart here.

How the values were obtained:
[1] = Two-component Cys-Lys stapling with EBX-PFP ester reagents 9a/9b (1.1 equiv), DIPEA (2.5 equiv), preparative RP-HPLC; details: the molecule shown is the open-chain precursor, DMF, 1.0 mM, 37.0 °C
[2] = Two-component Cys-Lys stapling: Cys S-alkynylation by EBX-pentafluorophenyl ester reagents 9a-9d (1.1 equiv), then intramolecular Lys aminolysis of the PFP ester; DIPEA (2.5 equiv); details: the molecule shown is the open-chain precursor, DMF, 1.0 mM, 37.0 °C, scale: % relative absorbance at 210 nm vs linear peptide standard
[3] = Two-component Cys-Cys stapling with bis-hypervalent iodine reagents 8c-8e (3.0 equiv), DIPEA (2.5 equiv), overnight, preparative RP-HPLC; details: the molecule shown is the open-chain precursor, DMF, 2.0 mM, 37.0 °C
[4] = the molecule shown is the open-chain precursor, scale: % relative absorbance at 210 nm vs linear peptide standard
[5] = 33-membered ring, DMF, 1.0 mM, 37.0 °C, 4.0 h
[6] = 22-membered ring, DMF, 1.0 mM, 37.0 °C, 4.0 h
[7] = 24-membered ring, DMF, 1.0 mM, 37.0 °C, 4.0 h

Ac-YGGEAAREAC(S-C≡C-C6H4-4-CO-OPfp)AREKAARE-NH2
ring closure, isolated yield (% isolated yield) ([1]; 27-membered ring): 65 | ring closure, conversion by HPLC ([2]; 27-membered ring, 0.5 h): 114

Ac-YGGEAAREAC(S-C≡C-Si(iPr)2-O-Si(iPr)2-C≡C-I[bis-CF3 benziodoxole])ARECAARE-NH2
ring closure, isolated yield (% isolated yield) ([3]; 24-membered ring): 19 | ring closure, conversion by HPLC ([4]; 24-membered ring): 9

Ac-QSQQTFC(S-C≡C-Si(iPr)2-C≡C-I[bis-CF3 benziodoxole])NLWRLLCQN-NH2
ring closure, isolated yield (% isolated yield) ([3]; 31-membered ring): 13 | ring closure, conversion by HPLC ([4]; 31-membered ring, DMF, 1.0 mM, 37.0 °C, 4.0 h): 30

Ac-YGGEAAREAC(S-C≡C-C6H3-3,5-(CO-OPfp)2)AREKAARE-NH2
ring closure, conversion by HPLC ([2]; 26-membered ring, 0.25 h): 70

CSCC[C@H](NC(=O)[C@H](CC(N)=O)NC(=O)[C@H](Cc1ccc(O)cc1)NC(=O)[C@H](CCCCN)NC(=O)[C@H](CCC(=O)O)NC(=O)[C@H](Cc1c[nH]cn1)NC(=O)[C@H](Cc1c[nH]c2ccccc12)NC(=O)[C@H](CSC#Cc1cccc(C(=O)Oc2c(F)c(F)c(F)c(F)c2F)c1)NC(=O)[C@H](CCCNC(=N)N)NC(=O)[C@H](CCC(=O)O)NC(=O)[C@@H](N)CO)C(N)=O [H-SERC(S-C≡C-C6H4-3-CO-OPfp)WHEKYNM-NH2]
ring closure, conversion by HPLC ([2]; 26-membered ring, 0.5 h): 20

Ac-YGGEAARK(ivDde)AC(S-C≡C-C6H4-3-CO-OPfp)AREKAARE-NH2
ring closure, conversion by HPLC ([2]; 26-membered ring, 0.5 h): 72

Ac-YGGEAARKAC(S-C≡C-C6H4-3-CO-OPfp)AREKAARE-NH2
ring closure, conversion by HPLC ([2]; 26-membered ring, 0.5 h): 74

Ac-QSQQTFC(S-C≡C-Si(cHex)2-C≡C-I[bis-CF3 benziodoxole])NLWRLLCQN-NH2
ring closure, isolated yield (% isolated yield) ([3]; 31-membered ring): 22

Ac-QSQQTFC(S-C≡C-Si(iPr)2-O-Si(iPr)2-C≡C-I[bis-CF3 benziodoxole])NLWRLLCQN-NH2
ring closure, isolated yield (% isolated yield) ([3]; 33-membered ring): 17 | ring closure, conversion by HPLC [4, 5]: 30

Ac-YGGEAAREAC(S-C≡C-Si(iPr)2-C≡C-I[bis-CF3 benziodoxole])ARECAARE-NH2
ring closure, isolated yield (% isolated yield) ([3]; 22-membered ring): 48 | ring closure, conversion by HPLC ([4]; 22-membered ring): 72

CSCC[C@H](NC(=O)[C@H](CC(N)=O)NC(=O)[C@H](Cc1ccc(O)cc1)NC(=O)[C@H](CCCCN)NC(=O)[C@H](CCC(=O)O)NC(=O)[C@H](Cc1c[nH]cn1)NC(=O)[C@H](Cc1c[nH]c2ccccc12)NC(=O)[C@H](CSC#Cc1ccc(C(=O)Oc2c(F)c(F)c(F)c(F)c2F)cc1)NC(=O)[C@H](CCCNC(=N)N)NC(=O)[C@H](CCC(=O)O)NC(=O)[C@@H](N)CO)C(N)=O [H-SERC(S-C≡C-C6H4-4-CO-OPfp)WHEKYNM-NH2]
ring closure, conversion by HPLC ([2]; 27-membered ring, 0.5 h): 63

Ac-YGGEKAREAC(S-C≡C-C6H4-4-CO-OPfp)AREKAARE-NH2
ring closure, conversion by HPLC ([2]; 27-membered ring, 0.5 h): 91

Ac-YGGEAAREAC(S-C≡C-C6H4-3-CO-OPfp)AREKAARE-NH2
ring closure, isolated yield (% isolated yield) ([1]; 26-membered ring): 44 | ring closure, conversion by HPLC ([2]; 26-membered ring, 0.5 h): 77

Ac-ENPEC(S-C≡C-Si(cHex)2-C≡C-I[bis-CF3 benziodoxole])ILDCHVQRVM-NH2
ring closure, conversion by HPLC [4, 6]: 89

Ac-YGGEAARK(ivDde)AC(S-C≡C-C6H4-4-CO-OPfp)AREKAARE-NH2
ring closure, conversion by HPLC ([2]; 27-membered ring, 0.5 h): 117

Ac-QSQQTFC(S-C≡C-C6H4-4-CO-OPfp)NLWRLLKQN-NH2
ring closure, isolated yield (% isolated yield) ([1]; 36-membered ring): 87 | ring closure, conversion by HPLC ([2]; 36-membered ring, 0.5 h): 117

Ac-ENPEC(S-C≡C-C6H4-3-CO-OPfp)ILDKHVQRVM-NH2
ring closure, isolated yield (% isolated yield) ([1]; 26-membered ring): 7 | ring closure, conversion by HPLC ([2]; 26-membered ring, 0.5 h): 34

Ac-ENPEC(S-C≡C-C6H4-3-C≡C-I[bis-CF3 benziodoxole])ILDCHVQRVM-NH2
ring closure, conversion by HPLC [4, 7]: 13

Ac-YGGEAAREAC(S-C≡C-C6H4-4-CO-OPfp)AREKAAREK-NH2
ring closure, conversion by HPLC ([2]; 27-membered ring, 0.5 h): 95

Ac-ENPEC(S-C≡C-C6H4-4-C≡C-I[bis-CF3 benziodoxole])ILDCHVQRVM-NH2
ring closure, conversion by HPLC ([4]; 25-membered ring): 27

C[C@H](NC(=O)[C@H](CC(=O)O)NC(=O)[C@H](Cc1c[nH]cn1)NC(=O)[C@H](CCCCN)NC(=O)[C@H](Cc1ccc(O)cc1)NC(=O)[C@H](Cc1ccccc1)NC(=O)[C@H](CCC(N)=O)NC(=O)[C@H](CO)NC(=O)[C@@H](N)CCCNC(=N)N)C(=O)NCC(=O)N[C@@H](CSC#Cc1cccc(C(=O)Oc2c(F)c(F)c(F)c(F)c2F)c1)C(=O)NCC(N)=O [H-RSQFYKHDAGC(S-C≡C-C6H4-3-CO-OPfp)G-NH2]
ring closure, conversion by HPLC ([2]; 29-membered ring, 0.5 h): 22

Ac-YGGEAAREAC(S-C≡C-C6H4-2-CO-OPfp)AREKAARE-NH2
ring closure, conversion by HPLC ([2]; 25-membered ring, 0.5 h): 118

Ac-QSQQTFC(S-C≡C-C6H4-2-CO-OPfp)NLWRLLKQN-NH2
ring closure, conversion by HPLC ([2]; 34-membered ring, 0.5 h): 123

Ac-QSQQTFC(S-C≡C-C6H4-3-CO-OPfp)NLWRLLKQN-NH2
ring closure, isolated yield (% isolated yield) ([1]; 35-membered ring): 55 | ring closure, conversion by HPLC ([2]; 35-membered ring, 0.5 h): 110

Ac-ENPEC(S-C≡C-C6H4-2-CO-OPfp)ILDKHVQRVM-NH2
ring closure, conversion by HPLC ([2]; 25-membered ring, 0.5 h): 101

Ac-ENPEC(S-C≡C-C6H4-4-CO-OPfp)ILDKHVQRVM-NH2
ring closure, isolated yield (% isolated yield) ([1]; 27-membered ring): 52 | ring closure, conversion by HPLC ([2]; 27-membered ring, 0.5 h): 62

Ac-QSQQTFC(S-C≡C-C6H4-3-C≡C-I[bis-CF3 benziodoxole])NLWRLLCQN-NH2
ring closure, conversion by HPLC [4, 5]: 13

Ac-YGGEAAREAC(S-C≡C-Si(cHex)2-C≡C-I[bis-CF3 benziodoxole])ARECAARE-NH2
ring closure, conversion by HPLC ([4]; 22-membered ring): 69

C[C@H](NC(=O)[C@H](CC(=O)O)NC(=O)[C@H](Cc1c[nH]cn1)NC(=O)[C@H](CCCCN)NC(=O)[C@H](Cc1ccc(O)cc1)NC(=O)[C@H](Cc1ccccc1)NC(=O)[C@H](CCC(N)=O)NC(=O)[C@H](CO)NC(=O)[C@@H](N)CCCNC(=N)N)C(=O)NCC(=O)N[C@@H](CSC#Cc1ccc(C(=O)Oc2c(F)c(F)c(F)c(F)c2F)cc1)C(=O)NCC(N)=O [H-RSQFYKHDAGC(S-C≡C-C6H4-4-CO-OPfp)G-NH2]
ring closure, conversion by HPLC ([2]; 30-membered ring, 0.5 h): 54 | ring closure, conversion by HPLC ([2]; 41-membered ring, 0.5 h): 18

Ac-ENPEC(S-C≡C-Si(iPr)2-C≡C-I[bis-CF3 benziodoxole])ILDCHVQRVM-NH2
ring closure, isolated yield (% isolated yield) ([3]; 22-membered ring): 46 | ring closure, conversion by HPLC [4, 6]: 98

Ac-QSQQTFC(S-C≡C-C6H4-4-C≡C-I[bis-CF3 benziodoxole])NLWRLLCQN-NH2
ring closure, conversion by HPLC ([4]; 34-membered ring, DMF, 1.0 mM, 37.0 °C, 4.0 h): 46

CSCC[C@H](NC(=O)[C@H](CC(N)=O)NC(=O)[C@H](CCCCN)NC(=O)[C@H](Cc1ccc(O)cc1)NC(=O)[C@H](CS)NC(=O)[C@H](CCC(=O)O)NC(=O)[C@H](Cc1c[nH]cn1)NC(=O)[C@H](Cc1c[nH]c2ccccc12)NC(=O)[C@H](CSC#C[Si](C#CI1OC(C(F)(F)F)(C(F)(F)F)c2ccccc21)(C(C)C)C(C)C)NC(=O)[C@H](CCCNC(=N)N)NC(=O)[C@H](CCC(=O)O)NC(=O)[C@@H](N)CO)C(N)=O
ring closure, conversion by HPLC [4, 6]: 79

CSCC[C@H](NC(=O)[C@H](CC(N)=O)NC(=O)[C@H](CCCCN)NC(=O)[C@H](Cc1ccc(O)cc1)NC(=O)[C@H](CS)NC(=O)[C@H](CCC(=O)O)NC(=O)[C@H](Cc1c[nH]cn1)NC(=O)[C@H](Cc1c[nH]c2ccccc12)NC(=O)[C@H](CSC#C[Si](O[Si](C#CI1OC(C(F)(F)F)(C(F)(F)F)c2ccccc21)(C(C)C)C(C)C)(C(C)C)C(C)C)NC(=O)[C@H](CCCNC(=N)N)NC(=O)[C@H](CCC(=O)O)NC(=O)[C@@H](N)CO)C(N)=O
ring closure, conversion by HPLC [4, 7]: 15

5(6)-FAM-QSQQTFC(S-C≡C-C6H4-4-CO-OPfp)NLWRLLKQN-NH2
ring closure, isolated yield (% isolated yield) ([1]; 36-membered ring): 76

Ac-YGGEAARKAC(S-C≡C-C6H4-4-CO-OPfp)AREKAARE-NH2
ring closure, conversion by HPLC ([2]; 27-membered ring, 0.5 h): 92

Ac-ENPEC(S-C≡C-Si(iPr)2-O-Si(iPr)2-C≡C-I[bis-CF3 benziodoxole])ILDCHVQRVM-NH2
ring closure, isolated yield (% isolated yield) ([3]; 24-membered ring): 29 | ring closure, conversion by HPLC [4, 7]: 51
